# Experimental data from patent US12077503B2, “Substituted cyclic amides and their use as herbicides” (FMC CORPORATION, priority 2015, dated 2024).
# How the values were obtained:
# Type in all cases: in vivo
# [1] = tested on: barnyardgrass (Echinochloa crus-galli); assay: Test G Pre-Emergence Protocol; conditions: Echinochloa crus-galli, pre-emergence, 312 h, evaluated after 13 days; for pest or weed control at 15.625 g/ha: 15.625 g ai/ha, read-out: Barnyard grass damage rating (100=total damage to plant; 0=no damage to plant); for pest or weed control at 62.5 g/ha: 62.5 g ai/ha, 100=total damage to plant, 0=no damage to plant, read-out: plant damage rating, Barnyardgrass; for pest or weed control at 250 g/ha: 250 g ai/ha, read-out: Barnyardgrass damage rating (100=total damage to plant; 0=no damage to plant)
# Outline: (§1)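 Glasshouse pre-emergence test: soil-sown seeds, sprayed after 1 d at 15.625, 62.5 or 250 g/ha. Conditions 24/16° C day/night, 14 h light, 65% humidity, watering twice daily. Rating 13 d post-spray (100 = total damage).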
# corn (Zea mays) [2] = assay: Test G Pre-Emergence Protocol; conditions: Zea mays, pre-emergence, 312 h, evaluated after 13 days; for plant injury at 15.625 g/ha: 15.625 g ai/ha; for plant injury at 15.625 g/ha / plant injury at 250 g/ha: read-out: Corn damage rating (100=total damage to plant; 0=no damage to plant); for plant injury at 62.5 g/ha: 62.5 g ai/ha, 100=total damage to plant, 0=no damage to plant, read-out: plant damage rating, Corn; for plant injury at 250 g/ha: 250 g ai/ha
# Outline: as §1
# [3] = tested on: giant foxtail (Setaria faberi); assay: Test G Pre-Emergence Protocol; conditions: Setaria faberi, pre-emergence, 312 h, evaluated after 13 days; for pest or weed control at 15.625 g/ha: 15.625 g ai/ha; for pest or weed control at 15.625 g/ha / pest or weed control at 250 g/ha: read-out: Foxtail, Giant damage rating (100=total damage to plant; 0=no damage to plant); for pest or weed control at 62.5 g/ha: 62.5 g ai/ha, 100=total damage to plant, 0=no damage to plant, read-out: plant damage rating, Foxtail, Giant; for pest or weed control at 250 g/ha: 250 g ai/ha
# Outline: as §1
# [4] = tested on: ivy-leaved morning glory (Ipomoea hederacea); assay: Test G Pre-Emergence Protocol; conditions: Ipomoea, pre-emergence, 312 h, evaluated after 13 days; for pest or weed control at 15.625 g/ha: 15.625 g ai/ha, read-out: Morning-glory, Ivy-leaved damage rating (100=total damage to plant; 0=no damage to plant); for pest or weed control at 62.5 g/ha: 62.5 g ai/ha, 100=total damage to plant, 0=no damage to plant, read-out: plant damage rating, Morningglory, Ivy-leaved; for pest or weed control at 250 g/ha: 250 g ai/ha, read-out: Morningglory, Ivy-leaved damage rating (100=total damage to plant; 0=no damage to plant)
# Outline: as §1
# [5] = tested on: redroot pigweed (Amaranthus retroflexus); assay: Test G Pre-Emergence Protocol; conditions: Amaranthus retroflexus, pre-emergence, 312 h, evaluated after 13 days; for pest or weed control at 15.625 g/ha: 15.625 g ai/ha; for pest or weed control at 15.625 g/ha / pest or weed control at 250 g/ha: read-out: Pigweed, Redroot damage rating (100=total damage to plant; 0=no damage to plant); for pest or weed control at 62.5 g/ha: 62.5 g ai/ha, 100=total damage to plant, 0=no damage to plant, read-out: plant damage rating, Pigweed, Redroot; for pest or weed control at 250 g/ha: 250 g ai/ha
# Outline: as §1
# [6] = tested on: velvetleaf (Abutilon theophrasti); assay: Test G Pre-Emergence Protocol; conditions: Abutilon theophrasti, pre-emergence, 312 h, evaluated after 13 days; for pest or weed control at 15.625 g/ha: 15.625 g ai/ha; for pest or weed control at 15.625 g/ha / pest or weed control at 250 g/ha: read-out: Velvetleaf damage rating (100=total damage to plant; 0=no damage to plant); for pest or weed control at 62.5 g/ha: 62.5 g ai/ha, 100=total damage to plant, 0=no damage to plant, read-out: plant damage rating, Velvetleaf; for pest or weed control at 250 g/ha: 250 g ai/ha
# Outline: as §1
# [7] = tested on: barnyardgrass (Echinochloa crus-galli); assay: Test G Post-Emergence Protocol; conditions: Echinochloa crus-galli, post-emergence, 312 h; for pest or weed control at 15.625 g/ha: 15.625 g ai/ha, evaluated after 13 days (100=total damage to plant; 0=no damage to plant), read-out: Barnyardgrass damage rating; for pest or weed control at 62.5 g/ha: 62.5 g ai/ha, read-out: Barnyardgrass damage rating (100=total damage to plant; 0=no damage to plant); for pest or weed control at 62.5 g/ha / pest or weed control at 250 g/ha: evaluated after 13 days; for pest or weed control at 250 g/ha: 250 g ai/ha, read-out: damage to plant, Barnyardgrass (100=total damage to plant; 0=no damage to plant)
# Outline: (§2)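 Foliar application was made 8 days after sowing, using an aqueous spray of the active in acetone/water (50:50) with 0.5% Tween 20, at doses of 15.625, 62.5 or 250 g/ha. Injury was assessed 13 days later, where 100 meant the plant was fully damaged.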
# corn (Zea mays) [8] = assay: Test G Post-Emergence Protocol; conditions: Zea mays, post-emergence, 312 h; for plant injury at 15.625 g/ha: 15.625 g ai/ha, evaluated after 13 days (100=total damage to plant; 0=no damage to plant), read-out: Corn damage rating; for plant injury at 62.5 g/ha: 62.5 g ai/ha, read-out: Corn damage rating (100=total damage to plant; 0=no damage to plant); for plant injury at 62.5 g/ha / plant injury at 250 g/ha: evaluated after 13 days; for plant injury at 250 g/ha: 250 g ai/ha, read-out: damage to plant, Corn (100=total damage to plant; 0=no damage to plant)
# Outline: as §2
# [9] = tested on: giant foxtail (Setaria faberi); assay: Test G Post-Emergence Protocol; conditions: Setaria faberi, post-emergence, 312 h; for pest or weed control at 15.625 g/ha: 15.625 g ai/ha, evaluated after 13 days (100=total damage to plant; 0=no damage to plant), read-out: Foxtail, Giant damage rating; for pest or weed control at 62.5 g/ha: 62.5 g ai/ha, read-out: Foxtail, Giant damage rating (100=total damage to plant; 0=no damage to plant); for pest or weed control at 62.5 g/ha / pest or weed control at 250 g/ha: evaluated after 13 days; for pest or weed control at 250 g/ha: 250 g ai/ha, read-out: damage to plant, Foxtail, Giant (100=total damage to plant; 0=no damage to plant)
# Outline: as §2
# [10] = tested on: ivy-leaved morning glory (Ipomoea hederacea); assay: Test G Post-Emergence Protocol; conditions: Ipomoea, post-emergence, 312 h; for pest or weed control at 15.625 g/ha: 15.625 g ai/ha, evaluated after 13 days (100=total damage to plant; 0=no damage to plant), read-out: Morningglory, Ivy-leaved damage rating; for pest or weed control at 62.5 g/ha: 62.5 g ai/ha, read-out: Morningglory, Ivy-leaved damage rating (100=total damage to plant; 0=no damage to plant); for pest or weed control at 62.5 g/ha / pest or weed control at 250 g/ha: evaluated after 13 days; for pest or weed control at 250 g/ha: 250 g ai/ha, read-out: damage to plant, Morningglory, Ivy-leaved (100=total damage to plant; 0=no damage to plant)
# Outline: as §2
# [11] = tested on: redroot pigweed (Amaranthus retroflexus); assay: Test G Post-Emergence Protocol; conditions: Amaranthus retroflexus, post-emergence, 312 h; for pest or weed control at 15.625 g/ha: 15.625 g ai/ha, evaluated after 13 days (100=total damage to plant; 0=no damage to plant), read-out: Pigweed, Redroot damage rating; for pest or weed control at 62.5 g/ha: 62.5 g ai/ha, read-out: Pigweed, Redroot damage rating (100=total damage to plant; 0=no damage to plant); for pest or weed control at 62.5 g/ha / pest or weed control at 250 g/ha: evaluated after 13 days; for pest or weed control at 250 g/ha: 250 g ai/ha, read-out: damage to plant, Pigweed, Redroot (100=total damage to plant; 0=no damage to plant)
# Outline: as §2
# [12] = tested on: velvetleaf (Abutilon theophrasti); assay: Test G Post-Emergence Protocol; conditions: Abutilon theophrasti, post-emergence, 312 h; for pest or weed control at 15.625 g/ha: 15.625 g ai/ha, evaluated after 13 days (100=total damage to plant; 0=no damage to plant), read-out: Velvetleaf damage rating; for pest or weed control at 62.5 g/ha: 62.5 g ai/ha, read-out: Velvetleaf damage rating (100=total damage to plant; 0=no damage to plant); for pest or weed control at 62.5 g/ha / pest or weed control at 250 g/ha: evaluated after 13 days; for pest or weed control at 250 g/ha: 250 g ai/ha, read-out: damage to plant, Velvetleaf (100=total damage to plant; 0=no damage to plant)
# Outline: as §2
SMILES,pest or weed control at 15.625 g/ha [1] [%],pest or weed control at 62.5 g/ha [1] [%],pest or weed control at 250 g/ha [1] [%],plant injury at 15.625 g/ha (corn (Zea mays) [2]) [%],plant injury at 62.5 g/ha (corn (Zea mays) [2]) [%],plant injury at 250 g/ha (corn (Zea mays) [2]) [%],pest or weed control at 15.625 g/ha [3] [%],pest or weed control at 62.5 g/ha [3] [%],pest or weed control at 250 g/ha [3] [%],pest or weed control at 15.625 g/ha [4] [%],pest or weed control at 62.5 g/ha [4] [%],pest or weed control at 250 g/ha [4] [%],pest or weed control at 15.625 g/ha [5] [%],pest or weed control at 62.5 g/ha [5] [%],pest or weed control at 250 g/ha [5] [%],pest or weed control at 15.625 g/ha [6] [%],pest or weed control at 62.5 g/ha [6] [%],pest or weed control at 250 g/ha [6] [%],pest or weed control at 15.625 g/ha [7] [%],pest or weed control at 62.5 g/ha [7] [%],also measured
COc1c(Cl)ccc([C@H]2CNC(=O)[C@@H]2C(=O)Nc2cccc(F)c2F)c1F (racemic) [Compound 1472],10,40,80,0,0,20,10,50,80,0,0,0,0,0,0,0,0,0,10,30,pest or weed control at 250 g/ha [7]: 50%; plant injury at 15.625 g/ha (corn (Zea mays) [8]): 10%; plant injury at 62.5 g/ha (corn (Zea mays) [8]): 20%; plant injury at 250 g/ha (corn (Zea mays) [8]): 40%; pest or weed control at 15.625 g/ha [9]: 10%; pest or weed control at 62.5 g/ha [9]: 50%; pest or weed control at 250 g/ha [9]: 70%; pest or weed control at 15.625 g/ha [10]: 20%; pest or weed control at 62.5 g/ha [10]: 20%; pest or weed control at 250 g/ha [10]: 20%; pest or weed control at 15.625 g/ha [11]: 0%; pest or weed control at 62.5 g/ha [11]: 10%; pest or weed control at 250 g/ha [11]: 10%; pest or weed control at 15.625 g/ha [12]: 0%; pest or weed control at 62.5 g/ha [12]: 10%; pest or weed control at 250 g/ha [12]: 10%
Cc1c(Cl)ccc([C@@H]2CN(C)C(=O)[C@H]2C(=O)Nc2cccc(F)c2F)c1F (racemic) [Compound 1473],20,40,70,0,0,10,50,70,80,10,0,10,0,0,70,0,0,0,40,40,pest or weed control at 250 g/ha [7]: 50%; plant injury at 15.625 g/ha (corn (Zea mays) [8]): 20%; plant injury at 62.5 g/ha (corn (Zea mays) [8]): 10%; plant injury at 250 g/ha (corn (Zea mays) [8]): 10%; pest or weed control at 15.625 g/ha [9]: 60%; pest or weed control at 62.5 g/ha [9]: 70%; pest or weed control at 250 g/ha [9]: 70%; pest or weed control at 15.625 g/ha [10]: 0%; pest or weed control at 62.5 g/ha [10]: 10%; pest or weed control at 250 g/ha [10]: 20%; pest or weed control at 15.625 g/ha [11]: 0%; pest or weed control at 62.5 g/ha [11]: 0%; pest or weed control at 250 g/ha [11]: 10%; pest or weed control at 15.625 g/ha [12]: 0%; pest or weed control at 62.5 g/ha [12]: 0%; pest or weed control at 250 g/ha [12]: 10%
